Publication PMC8397403, “Physiologically Based Pharmacokinetic Modeling of Transporter-Mediated Hepatic Disposition of Imaging Biomarker Gadoxetate in Rats” (Molecular Pharmaceutics, 2021)
Like-named read-outs stand apart in the source and are kept apart here.

What was measured:
[1] = parameters: method as in PMID 32851735; details: cited from earlier work; for Ex vivo relaxivity r1, blood: spleen assumed equal to blood
[2] = system: plated rat hepatocytes; test: In vitro uptake kinetics of gadoxetate in plated rat hepatocytes (mechanistic hepatocyte model); assay type: in vitro ADME; details: for % passive: CLpassive,u/(CLactive,u + CLpassive,u); for CLactive,u: Vmax/Km,u; for Km: read-out: Km,u
Experimental: Male adult Sprague-Dawley rats (Charles River, Margate, Kent, UK) were housed in groups of two in individually ventilated cages with free access to food (Chow rat and mouse diet) and fresh drinking water. The designated rat housing facility maintained a controlled temperature (20 ± 3 °C), humidity (40–70%), and 12 h light/dark cycle conditions. All animal protocols were approved by the University of Manchester review committee and adhered to the UK Home Office Animals (Scientific Procedures) Act (1986). Rats (250–300 g) were sacrificed using CO2 overdose followed by cervical dislocation in the morning of the study day. The kinetics experiment, as described below, was performed using n = 4 animals. A minimum of n = 3 was required to explore interanimal variability in kinetic parameters, with surplus hepatocytes also used from an additional animal that was part of a separate project. Primary rat hepatocytes, prepared as described below, were used to evaluate test compound cytotoxicity/effect on hepatocyte attachment (n = 3), preliminary assays to determine uptake assay conditions (n = 4), and for assays that were failed, for example, poor cell viability (n = 6 animals).
Isolation of hepatocytes using ex vivo collagenase perfusion was performed, followed by cell count and viability assessment, as previously described.[34]−[36] Cell preparations with viability <85% were not used for experiments. Hepatocytes were seeded at 240,000 cells per well in collagen I-coated 24-well plates, and incubated for at least 2 h at 37 °C and 95% air/5% CO2 to allow cell attachment to the plate.[36]
Uptake experiments were performed at 37 °C with duplicate incubations per condition, as previously described.[35] Uptake of gadoxetate (Primovist injection solution, Bayer, Germany) was evaluated following incubation (0.5–150 min) at nominal media concentrations of 0.01–10 mM. Extended incubation timepoints (up to 150 min) were selected based on previous publications[35] and existing in-house data to enable characterization of the steady-state intracellular concentration. Uptake of pitavastatin (Sequoia Research Products Ltd, Pangbourne, UK) (0.2 μM) in the absence and presence of a pan-inhibitor of uptake transporters, rifamycin SV (Sigma-Aldrich, Poole, UK) (100 μM), was also evaluated for 0.5–2 min as positive control for functional transporter activity. Following sample preparation including addition of internal standard (Table S1), gadoxetate and pitavastatin in cell samples, and gadoxetate in media samples, were quantified by liquid chromatography–tandem mass spectrometry (LC–MS/MS). LC–MS/MS quantification was performed using selective reaction monitoring (SRM) against calibration standards; only standards within 30% of nominal concentration were included. The protein content of plated rat hepatocytes was measured using the Pierce BCA Protein Assay Kit (Thermo Fisher Scientific, Paisley, UK).
In vitro hepatocyte uptake (i.e., the amount of gadoxetate in cell as quantified by LC–MS/MS) (pmol) at each time point was normalized for cellularity using the measured protein content and assuming that 10^6 hepatocytes contain 1 mg protein.[34] For gadoxetate, the data from each animal were used for simultaneous estimation of in vitro kinetic parameters using a mechanistic hepatocyte model reported previously.[35] It should be noted that CLpassive,u implies nonsaturable clearance equal in both directions under experimental conditions (0.01–10 mM). [drawing 1] 1 where Km,u represents the unbound Michaelis constant (μM); Vmax the maximum transport rate (pmol/min/10^6 cells); and fu,cell the fraction unbound in cell and nonsaturable, bidirectional clearance (CLpassive,u; μL/min/10^6 cells). ccell and cmedium represent concentrations in cell and medium compartments, respectively, and Vcell represents the cell volume.
Intracellular concentrations were calculated assuming a hepatocyte cell volume of 3.9 μL/10^6 cells.[35] […]

## CCOc1ccc(C[C@@H](CN(CCN(CC(=O)[O-])CC(=O)[O-])CC(=O)[O-])N(CC(=O)[O-])CC(=O)[O-])cc1.[Gd+3].[H+].[H+] [gadoxetate]
[1]; 4.7 T
  Ex vivo relaxivity r1, hepatocytes: 7.6 s^–1/mM
  Ex vivo relaxivity r1, blood: 6.4 s^–1/mM
[1]; 7 T
  Ex vivo relaxivity r1, hepatocytes: 6 s^–1/mM
  Ex vivo relaxivity r1, blood: 6.2 s^–1/mM
[2]; CLactive,u/(CLactive,u + CLpassive,u), animal 1
  maximum % active: 97%
[2]; CLactive,u/(CLactive,u + CLpassive,u), animal 2
  maximum % active: 94%
[2]; CLactive,u/(CLactive,u + CLpassive,u), animal 3
  maximum % active: 91%
[2]; CLactive,u/(CLactive,u + CLpassive,u), animal 4
  maximum % active: 94%
[2]; animal 1
  % passive: 3%
  CLactive,u: 3.07 μL/min/10^6 cells
  CLpassive,u: 0.091 μL/min/10^6 cells
  Vmax: 350.4 pmol/min/10^6 cells
  Km: 114 µM
[2]; animal 2
  % passive: 6%
  CLactive,u: 3.20 μL/min/10^6 cells
  CLpassive,u: 0.202 μL/min/10^6 cells
  Vmax: 370.9 pmol/min/10^6 cells
  Km: 116 µM
[2]; animal 3
  % passive: 9%
  CLactive,u: 2.78 μL/min/10^6 cells
  CLpassive,u: 0.274 μL/min/10^6 cells
  Vmax: 221.7 pmol/min/10^6 cells
  Km: 79.8 µM
[2]; animal 4
  % passive: 6%
  CLactive,u: 3.20 μL/min/10^6 cells
  CLpassive,u: 0.203 μL/min/10^6 cells
  Vmax: 368.8 pmol/min/10^6 cells
  Km: 115 µM
[2]; average of n = 4 animals
  % passive: 6%
  CLactive,u: 3.06 μL/min/10^6 cells
  CLpassive,u: 0.193 μL/min/10^6 cells
  Vmax: 327.95 pmol/min/10^6 cells
[2]; average of n = 4 animals (CV %)
  Km: 106 µM
[2]; contribution of active saturable uptake to total uptake, average of n = 4 animals
  maximum % active: 94%
[2]; fraction unbound in cell (fu,cell), average of n = 4 animals (CV %)
  fu,liv,cell: 0.648
[2]; fraction unbound in cell (fu,cell), average of n = 4 animals (CV %), listed as Gadoxetate
  fu,liv,cell: 0.65 (24%)
[2]; fraction unbound in cell, animal 1
  fu,liv,cell: 0.759
[2]; fraction unbound in cell, animal 2
  fu,liv,cell: 0.709
[2]; fraction unbound in cell, animal 3
  fu,liv,cell: 0.418
[2]; fraction unbound in cell, animal 4
  fu,liv,cell: 0.704
